{
  "source": "the supplement of paper PMC10307832",
  "assay_in_all_cases": "relative viability (nuclei count vs DMSO), 5 days (fraction); higher = more cells survive",
  "key": {"NCI-H1437": {"tested_on": "NCI-H1437", "summary_of_the_method": "(§1)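 Each reported value is a median over duplicate plates. It expresses relative viability: treated-well nuclei count divided by vehicle-well nuclei count. Lung cancer cell lines in 1536-well plates were dosed by pin tool a day after seeding, alone with one drug or with a fixed anchor-drug dose plus five library-drug doses (not always all listed) in √10 steps, and nuclei were counted after 5 days.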"}, "NCI-H1623": {"tested_on": "NCI-H1623", "summary_of_the_method": "as §1"}, "NCI-H2085": {"tested_on": "NCI-H2085", "summary_of_the_method": "as §1"}, "HCC-366": {"tested_on": "HCC-366", "summary_of_the_method": "as §1"}, "LOU-NH91": {"tested_on": "LOU-NH91", "summary_of_the_method": "as §1"}, "NCI-H3122": {"tested_on": "NCI-H3122", "summary_of_the_method": "as §1"}, "NCI-H1648": {"tested_on": "NCI-H1648", "summary_of_the_method": "as §1"}, "NCI-H1703": {"tested_on": "NCI-H1703", "summary_of_the_method": "as §1"}, "HCC-44": {"tested_on": "HCC-44", "summary_of_the_method": "as §1"}},
  "data": [
    {"smiles": "O=c1cc(-c2cccc3c2Sc2ccccc2S3)oc(N2CCOCC2)c1", "note": "+ Cc1nc(Nc2ncc(C(=O)Nc3c(C)cccc3Cl)s2)cc(N2CCN(CCO)CC2)n1 [Dasatinib] (partner 0.075 µM)", "values": [
      {"measurement": "relative viability", "setting": "NCI-H1437; first compound 0.08 µM", "value": 0.435},
      {"measurement": "relative viability", "setting": "NCI-H1437; first compound 0.253 µM", "value": 0.488},
      {"measurement": "relative viability", "setting": "NCI-H1437; first compound 0.8 µM", "value": 0.401},
      {"measurement": "relative viability", "setting": "NCI-H1437; first compound 2.53 µM", "value": 0.339},
      {"measurement": "relative viability", "setting": "NCI-H1437; first compound 8 µM", "value": 0.423},
      {"measurement": "relative viability", "setting": "NCI-H1623; first compound 0.08 µM", "value": 0.488},
      {"measurement": "relative viability", "setting": "NCI-H1623; first compound 0.253 µM", "value": 0.568},
      {"measurement": "relative viability", "setting": "NCI-H1623; first compound 0.8 µM", "value": 0.501},
      {"measurement": "relative viability", "setting": "NCI-H1623; first compound 2.53 µM", "value": 0.57},
      {"measurement": "relative viability", "setting": "NCI-H1623; first compound 8 µM", "value": 0.536},
      {"measurement": "relative viability", "setting": "NCI-H2085; first compound 0.08 µM", "value": 0.222},
      {"measurement": "relative viability", "setting": "NCI-H2085; first compound 0.253 µM", "value": 0.238},
      {"measurement": "relative viability", "setting": "NCI-H2085; first compound 0.8 µM", "value": 0.225},
      {"measurement": "relative viability", "setting": "NCI-H2085; first compound 2.53 µM", "value": 0.241},
      {"measurement": "relative viability", "setting": "NCI-H2085; first compound 8 µM", "value": 0.236},
      {"measurement": "relative viability", "setting": "HCC-366; first compound 0.08 µM", "value": 0.633},
      {"measurement": "relative viability", "setting": "HCC-366; first compound 0.253 µM", "value": 0.718},
      {"measurement": "relative viability", "setting": "HCC-366; first compound 0.8 µM", "value": 0.547},
      {"measurement": "relative viability", "setting": "HCC-366; first compound 2.53 µM", "value": 0.666},
      {"measurement": "relative viability", "setting": "HCC-366; first compound 8 µM", "value": 0.767},
      {"measurement": "relative viability", "setting": "LOU-NH91; first compound 0.08 µM", "value": 0.589},
      {"measurement": "relative viability", "setting": "LOU-NH91; first compound 0.253 µM", "value": 0.558},
      {"measurement": "relative viability", "setting": "LOU-NH91; first compound 0.8 µM", "value": 0.523},
      {"measurement": "relative viability", "setting": "LOU-NH91; first compound 2.53 µM", "value": 0.519},
      {"measurement": "relative viability", "setting": "LOU-NH91; first compound 8 µM", "value": 0.559},
      {"measurement": "relative viability", "setting": "NCI-H3122; first compound 0.08 µM", "value": 0.79},
      {"measurement": "relative viability", "setting": "NCI-H3122; first compound 0.253 µM", "value": 0.787},
      {"measurement": "relative viability", "setting": "NCI-H3122; first compound 0.8 µM", "value": 0.784},
      {"measurement": "relative viability", "setting": "NCI-H3122; first compound 2.53 µM", "value": 0.828},
      {"measurement": "relative viability", "setting": "NCI-H3122; first compound 8 µM", "value": 0.929}
    ]},
    {"smiles": "O=c1cc(N2CCOCC2)oc2c(-c3cccc4c3sc3ccccc34)cccc12", "note": "+ NC(=O)Nc1cc(-c2cccc(F)c2)sc1C(=O)N[C@H]1CCCNC1 [AZD7762] (partner 0.2 µM)", "values": [
      {"measurement": "relative viability", "setting": "NCI-H1648; first compound 0.03162 µM", "value": 0.889},
      {"measurement": "relative viability", "setting": "NCI-H1648; first compound 0.1 µM", "value": 0.714},
      {"measurement": "relative viability", "setting": "NCI-H1648; first compound 0.3162 µM", "value": 0.609},
      {"measurement": "relative viability", "setting": "NCI-H1648; first compound 1 µM", "value": 0.746},
      {"measurement": "relative viability", "setting": "NCI-H1437; first compound 0.01 µM", "value": 1.22},
      {"measurement": "relative viability", "setting": "NCI-H1437; first compound 0.03162 µM", "value": 1.12},
      {"measurement": "relative viability", "setting": "NCI-H1437; first compound 0.1 µM", "value": 1.12},
      {"measurement": "relative viability", "setting": "NCI-H1437; first compound 0.3162 µM", "value": 1.1},
      {"measurement": "relative viability", "setting": "NCI-H1437; first compound 1 µM", "value": 1.04},
      {"measurement": "relative viability", "setting": "NCI-H1703; first compound 0.01 µM", "value": 0.143},
      {"measurement": "relative viability", "setting": "NCI-H1703; first compound 0.03162 µM", "value": 0.137},
      {"measurement": "relative viability", "setting": "NCI-H1703; first compound 0.3162 µM", "value": 0.146},
      {"measurement": "relative viability", "setting": "NCI-H1703; first compound 1 µM", "value": 0.131},
      {"measurement": "relative viability", "setting": "NCI-H2085; first compound 0.01 µM", "value": 1},
      {"measurement": "relative viability", "setting": "NCI-H2085; first compound 0.03162 µM", "value": 1.02},
      {"measurement": "relative viability", "setting": "NCI-H2085; first compound 0.1 µM", "value": 0.887},
      {"measurement": "relative viability", "setting": "NCI-H2085; first compound 0.3162 µM", "value": 1.05},
      {"measurement": "relative viability", "setting": "NCI-H2085; first compound 1 µM", "value": 1.01},
      {"measurement": "relative viability", "setting": "HCC-44; first compound 0.01 µM", "value": 1.03},
      {"measurement": "relative viability", "setting": "HCC-44; first compound 0.03162 µM", "value": 1.08},
      {"measurement": "relative viability", "setting": "HCC-44; first compound 0.1 µM", "value": 0.973},
      {"measurement": "relative viability", "setting": "HCC-44; first compound 0.3162 µM", "value": 1.01},
      {"measurement": "relative viability", "setting": "HCC-44; first compound 1 µM", "value": 0.966},
      {"measurement": "relative viability", "setting": "HCC-366; first compound 0.01 µM", "value": 0.247},
      {"measurement": "relative viability", "setting": "HCC-366; first compound 0.03162 µM", "value": 0.286},
      {"measurement": "relative viability", "setting": "HCC-366; first compound 0.1 µM", "value": 0.127},
      {"measurement": "relative viability", "setting": "HCC-366; first compound 0.3162 µM", "value": 0.287},
      {"measurement": "relative viability", "setting": "HCC-366; first compound 1 µM", "value": 0.288},
      {"measurement": "relative viability", "setting": "LOU-NH91; first compound 0.01 µM", "value": 0.755},
      {"measurement": "relative viability", "setting": "LOU-NH91; first compound 0.03162 µM", "value": 0.785},
      {"measurement": "relative viability", "setting": "LOU-NH91; first compound 0.1 µM", "value": 0.803},
      {"measurement": "relative viability", "setting": "LOU-NH91; first compound 0.3162 µM", "value": 0.78},
      {"measurement": "relative viability", "setting": "LOU-NH91; first compound 1 µM", "value": 0.751},
      {"measurement": "relative viability", "setting": "NCI-H3122; first compound 0.01 µM", "value": 1.01},
      {"measurement": "relative viability", "setting": "NCI-H3122; first compound 0.03162 µM", "value": 0.976},
      {"measurement": "relative viability", "setting": "NCI-H3122; first compound 0.1 µM", "value": 0.731},
      {"measurement": "relative viability", "setting": "NCI-H3122; first compound 0.3162 µM", "value": 0.99},
      {"measurement": "relative viability", "setting": "NCI-H3122; first compound 1 µM", "value": 0.973}
    ]}
  ]
}
